In PMC9380671, “Development of spiro-3-indolin-2-one containing compounds of antiproliferative and anti-SARS-CoV-2 properties” (Scientific Reports, 2022):
Like-named read-outs stand apart in the source and are kept apart here.

Experiments:
[1] = test system: SARS-CoV-2 (hCoV-19/Egypt/NRC-03/2020); settings: Vero-E6; cited from earlier work
[2] = MTT cytotoxicity assay (CC50); format: cell-based; settings: African green monkey, VERO-E6 cells
Protocol: The cytotoxic activity of the compounds was tested in VERO-E6 cells by using the 3-(4,5-dimethylthiazol-2-yl)-2,5-diphenyltetrazolium bromide (MTT) method with minor modifications. Briefly, the cells were seeded in 96 well-plates […] at a density of 3 x 10^5 cell/ml and incubated for 24 h at 37 °C in 5% CO2. After 24 h, cells were treated with various concentrated of the tested compounds in triplicates. 24 h later, the supernatant was discarded and cell monolayers were washed with sterile 1x phosphate buffer saline (PBS) 3 times and MTT solution (20 µl of 5 mg/ml) was added to each well and incubated at 37 °C for 4 h followed by medium aspiration. In each well, the formed formazan crystals were dissolved with 200 µl of acidified isopropanol (0.04 M HCl in absolute isopropanol = 0.073 ml HCl in 50 ml isopropanol). Eventually, the absorbance was measured at λmax 570 nm using the Anthos Zenyth 200rt plate reader (Anthos Labtec Instruments, Heerhugowaard, Netherlands). The cytotoxicity of various concentrations compared to the untreated cells was determined using nonlinear regression analysis by plotting log inhibitor versus normalized response.^12^-14

[3] = test system: HCT116 (colon) cancer cell line; test: MTT antiproliferation, HCT116; format: cell-based, human; settings: for IC50: Homo sapiens, HCT-116, 72 h, read-out: IC50 (µM) ± SEM HCT116; for SI (selectivity index) HCT116: IC50 of RPE1/IC50 of cancer cell line
Protocol: (§1) Antiproliferation properties of the targeted agents were investigated by the standard MTT technique against diverse human cancer cell lines [MCF7 (breast), HCT116 (colon), A431 (skin squamous) and PaCa2 (pancreatic)][67] (Table 1, Supplementary Figs. S48‒S51).
(§2) Cells were seeded at concentration of 30000 cells per well in fresh complete growth medium in 96-well tissue culture microtiter plates for 24 h. […] 0.5% DMSO was used as negative control. Triplicate wells were prepared for each individual dose. After 72 h of incubation, medium was aspirated, 40 μl MTT salt (2.5 mg ml^-1) was added to each well and incubated for further 4 h at 37 °C. To stop the reaction and dissolve the formed crystals, 150 μl of 10% sodium dodecyl sulfate (SDS) in deionized water was added to each well and incubated overnight at 37 °C.
(§3) Data were collected as mean values for experiments performed in triplicates for each individual dose which had been measured by MTT assay. […] The cell surviving fraction was calculated according to the following equation.
(§4) Surviving fraction = OpticaldensityO.D.oftreatedcellsO.D.ofcontrolcells
(§5) Statistical calculations for determination of the mean and standard error mean values were determined by SPSS 16 software.

[4] = test system: SARS-CoV-2 (hCoV-19/Egypt/NRC-03/2020); test: Vero-E6 cell viral infection model, anti-SARS-CoV-2 IC50 (CPE, crystal violet); format: cell-based; settings: for IC50: Severe acute respiratory syndrome coronavirus 2, Vero C1008; for SI = CC50/IC50: Vero-E6, SARS-CoV-2
[5] = test system: MCF7 (breast) cancer cell line; test: MTT antiproliferation, MCF7; format: cell-based, human; settings: for IC50: Homo sapiens, MCF7, 72 h, read-out: IC50 (µM) ± SEM MCF7; for SI (selectivity index) MCF7: IC50 of RPE1/IC50 of cancer cell line
Protocol: as §1, §2, §3, §4, §5

VEGFR-2 = molecular target: T1, VEGFR-2 (Homo sapiens, UniProt P35968); format: cell-based; settings: western blot, MCF7, compound at its MTT IC50; for VEGFR-2 RQ (relative quantification): control RQ 3.2634
T1 construct: Western blot technique was considered for EGFR and VEGFR-2 properties determination; endogenous in cells; host or cells: MCF7 (breast cancer cell line)
T1 sequence (P35968 20-1356): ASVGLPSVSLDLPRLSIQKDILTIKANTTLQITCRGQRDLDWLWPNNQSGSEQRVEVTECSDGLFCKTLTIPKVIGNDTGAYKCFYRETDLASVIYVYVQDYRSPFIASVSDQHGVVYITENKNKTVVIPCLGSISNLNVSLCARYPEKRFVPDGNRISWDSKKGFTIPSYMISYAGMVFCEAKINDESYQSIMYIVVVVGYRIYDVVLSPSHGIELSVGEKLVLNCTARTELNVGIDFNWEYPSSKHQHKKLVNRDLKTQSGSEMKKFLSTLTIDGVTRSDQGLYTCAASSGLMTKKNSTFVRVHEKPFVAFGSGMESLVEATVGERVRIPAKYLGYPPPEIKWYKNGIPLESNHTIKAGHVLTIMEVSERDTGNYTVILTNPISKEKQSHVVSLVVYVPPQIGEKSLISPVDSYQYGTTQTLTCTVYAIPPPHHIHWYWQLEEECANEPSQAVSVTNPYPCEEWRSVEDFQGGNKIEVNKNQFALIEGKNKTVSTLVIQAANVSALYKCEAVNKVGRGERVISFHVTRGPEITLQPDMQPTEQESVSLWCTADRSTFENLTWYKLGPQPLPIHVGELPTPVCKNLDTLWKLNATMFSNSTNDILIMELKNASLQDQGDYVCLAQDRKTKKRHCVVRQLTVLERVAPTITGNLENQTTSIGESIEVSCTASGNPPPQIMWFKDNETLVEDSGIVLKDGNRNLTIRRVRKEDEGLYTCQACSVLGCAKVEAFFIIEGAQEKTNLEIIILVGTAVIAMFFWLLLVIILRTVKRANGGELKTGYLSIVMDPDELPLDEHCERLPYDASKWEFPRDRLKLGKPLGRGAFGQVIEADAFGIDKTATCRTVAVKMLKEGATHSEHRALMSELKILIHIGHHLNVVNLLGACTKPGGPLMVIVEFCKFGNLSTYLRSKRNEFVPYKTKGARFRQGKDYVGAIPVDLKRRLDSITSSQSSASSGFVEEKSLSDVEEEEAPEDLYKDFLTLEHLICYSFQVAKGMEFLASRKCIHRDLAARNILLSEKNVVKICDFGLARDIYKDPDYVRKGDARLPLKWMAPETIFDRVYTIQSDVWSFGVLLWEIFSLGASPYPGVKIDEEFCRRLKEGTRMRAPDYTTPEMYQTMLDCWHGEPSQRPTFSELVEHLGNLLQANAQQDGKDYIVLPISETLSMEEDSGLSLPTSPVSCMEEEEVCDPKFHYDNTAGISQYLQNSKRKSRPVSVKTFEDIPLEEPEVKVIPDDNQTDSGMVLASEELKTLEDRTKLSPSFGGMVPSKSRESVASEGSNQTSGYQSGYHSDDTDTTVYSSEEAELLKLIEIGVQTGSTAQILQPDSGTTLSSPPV
From the text: (§6) The western blot technique was applied utilizing the IC50 observed for each respective agent synthesized during MTT assay[85],[86]. Consideration of multi-targeted inhibitory properties investigation is based in the fact that cancer initiation and proliferation sometimes utilizes many receptors or signaling pathways.
(§7) Western blot technique was considered for EGFR and VEGFR-2 properties determination utilizing the IC50 observed of each respective agent synthesized during MTT assay against MCF7 (breast) cancer cell line. All the studies were conducted according to the manufacturer’s instruction.^10,^11

EGFR = molecular target: T2, EGFR (Homo sapiens, UniProt P00533); format: cell-based; settings: western blot, MCF7, compound at its MTT IC50; for EGFR RQ (relative quantification): control RQ 3.4461
T2 construct: Western blot technique was considered for EGFR and VEGFR-2 properties determination; endogenous in cells; host or cells: MCF7 (breast cancer cell line)
T2 sequence (P00533 25-1210): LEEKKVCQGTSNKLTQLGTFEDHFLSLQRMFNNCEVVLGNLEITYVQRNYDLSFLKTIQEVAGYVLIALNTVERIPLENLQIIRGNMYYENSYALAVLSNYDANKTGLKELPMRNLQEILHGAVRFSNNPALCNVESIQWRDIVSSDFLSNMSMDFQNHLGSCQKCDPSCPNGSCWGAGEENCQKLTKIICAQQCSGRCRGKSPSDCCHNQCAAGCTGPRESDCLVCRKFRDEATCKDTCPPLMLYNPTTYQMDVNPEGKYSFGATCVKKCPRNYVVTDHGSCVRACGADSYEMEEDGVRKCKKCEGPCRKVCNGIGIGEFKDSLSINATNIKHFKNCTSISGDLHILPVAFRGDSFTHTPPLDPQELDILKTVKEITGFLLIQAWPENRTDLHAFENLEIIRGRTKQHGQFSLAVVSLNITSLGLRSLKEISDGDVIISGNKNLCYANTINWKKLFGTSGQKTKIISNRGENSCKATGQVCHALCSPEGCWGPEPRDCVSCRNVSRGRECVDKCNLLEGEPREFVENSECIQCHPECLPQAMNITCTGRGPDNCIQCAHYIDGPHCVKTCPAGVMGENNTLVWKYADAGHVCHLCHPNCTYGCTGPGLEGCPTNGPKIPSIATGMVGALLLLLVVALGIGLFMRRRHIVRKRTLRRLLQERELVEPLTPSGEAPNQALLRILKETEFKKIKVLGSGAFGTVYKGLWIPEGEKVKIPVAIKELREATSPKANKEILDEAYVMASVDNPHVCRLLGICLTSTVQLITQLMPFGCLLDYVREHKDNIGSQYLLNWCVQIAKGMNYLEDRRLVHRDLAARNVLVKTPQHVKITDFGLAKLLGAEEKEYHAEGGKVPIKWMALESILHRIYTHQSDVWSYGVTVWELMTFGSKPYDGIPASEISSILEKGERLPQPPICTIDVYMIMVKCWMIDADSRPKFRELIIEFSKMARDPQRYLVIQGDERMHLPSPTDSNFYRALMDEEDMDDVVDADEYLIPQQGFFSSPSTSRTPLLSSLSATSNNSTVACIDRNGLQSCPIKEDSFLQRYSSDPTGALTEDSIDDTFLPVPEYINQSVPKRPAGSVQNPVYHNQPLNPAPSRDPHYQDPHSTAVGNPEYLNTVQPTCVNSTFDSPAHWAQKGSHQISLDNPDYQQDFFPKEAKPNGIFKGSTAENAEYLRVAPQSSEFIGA
From the text: as §6, §7

AChE = AChE (Homo sapiens, UniProt P22303); test: AChE inhibition (DTNB, acetylthiocholine); format: biochemical; settings: for IC50: read-out: AChE (IC50, μM) ± SD
Sequence of AChE (P22303 32-614): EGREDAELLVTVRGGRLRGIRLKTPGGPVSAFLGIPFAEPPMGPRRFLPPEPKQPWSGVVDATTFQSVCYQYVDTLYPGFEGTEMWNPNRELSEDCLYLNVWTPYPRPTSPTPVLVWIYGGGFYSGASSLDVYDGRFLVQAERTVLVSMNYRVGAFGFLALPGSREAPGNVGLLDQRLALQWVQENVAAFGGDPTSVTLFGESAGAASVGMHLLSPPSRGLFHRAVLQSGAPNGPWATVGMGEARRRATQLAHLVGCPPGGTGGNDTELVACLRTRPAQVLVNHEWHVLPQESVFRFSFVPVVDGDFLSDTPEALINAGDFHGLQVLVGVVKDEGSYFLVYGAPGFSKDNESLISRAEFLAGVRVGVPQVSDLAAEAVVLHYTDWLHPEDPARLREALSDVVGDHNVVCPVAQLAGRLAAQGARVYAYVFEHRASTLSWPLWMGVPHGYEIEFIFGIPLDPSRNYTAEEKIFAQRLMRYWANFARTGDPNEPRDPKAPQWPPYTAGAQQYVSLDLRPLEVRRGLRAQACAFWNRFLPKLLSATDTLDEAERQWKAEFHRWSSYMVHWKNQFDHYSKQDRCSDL
Protocol: All compounds were dissolved in MeOH.

BChE = BChE (Homo sapiens, UniProt P06276); test: BChE inhibition (DTNB, butyrylthiocholine iodide)
Sequence of BChE (P06276 29-602, species assumed): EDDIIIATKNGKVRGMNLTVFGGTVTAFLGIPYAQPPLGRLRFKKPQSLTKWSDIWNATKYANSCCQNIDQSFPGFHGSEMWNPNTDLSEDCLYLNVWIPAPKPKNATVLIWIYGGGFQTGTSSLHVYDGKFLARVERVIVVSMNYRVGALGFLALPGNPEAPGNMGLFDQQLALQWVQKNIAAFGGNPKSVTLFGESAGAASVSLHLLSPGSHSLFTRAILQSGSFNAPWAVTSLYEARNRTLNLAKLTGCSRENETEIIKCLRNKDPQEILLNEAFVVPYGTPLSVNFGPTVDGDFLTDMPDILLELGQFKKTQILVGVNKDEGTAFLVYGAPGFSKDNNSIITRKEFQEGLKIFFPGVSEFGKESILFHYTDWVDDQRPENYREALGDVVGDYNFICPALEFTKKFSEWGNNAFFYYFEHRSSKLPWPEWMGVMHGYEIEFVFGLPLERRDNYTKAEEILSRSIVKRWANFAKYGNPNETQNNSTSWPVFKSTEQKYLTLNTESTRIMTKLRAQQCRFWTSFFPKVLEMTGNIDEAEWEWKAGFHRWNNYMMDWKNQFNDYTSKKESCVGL

[6] = test system: A431 (skin squamous) cancer cell line; test: MTT antiproliferation, A431; format: cell-based, human; settings: for IC50: Homo sapiens; for SI (selectivity index) A431: IC50 of RPE1/IC50 of cancer cell line
Protocol: as §1, §2, §3, §4, §5

[7] = test system: RPE1 (normal human immortalized retinal pigment epithelial cell line); test: MTT toxicity towards normal cells, RPE1; format: cell-based; settings: RPE-1, read-out: IC50 (µM) ± SEM RPE1
Protocol: The safety of the synthesized agents against non-cancer/normal RPE1 (retinal pigment epithelium) cell line was assessed (Table 1, Supplementary Fig. S52). The SI (selectivity index) for the tested compounds against RPE1 cell line confirms the safety towards non-cancer cells. […] Compound 6d and 6h which are also of high anti-PaCa2 show remarkable SI values (SI = > 3.8, > 3.6, respectively).
The agents synthesized were also tested against RPE1 (normal human immortalized retinal pigment epithelial cell line) cell (in DMEM-F12 medium) to determine the toxicity/selectivity towards normal cells relative to the cancer cell lines utilized.
(§8) Statistical calculations for determination of the mean and standard error mean values were determined by SPSS 16 software. The observed anti-proliferative properties are presented in Table 1 (Supplementary Figs. S48‒S52).

[8] = test system: PaCa2 (pancreatic) cancer cell line; test: MTT antiproliferation, PaCa-2; format: cell-based, human; settings: for IC50: Homo sapiens, PaCa-2, 72 h, read-out: IC50 (µM) ± SEM PaCa-2; for SI (selectivity index) PaCa-2: IC50 of RPE1/IC50 of cancer cell line
Protocol: as §1
Cells were suspended in DMEM medium for MCF7, A431, PaCa-2 and McCoy’s 5A for HCT116 in addition to 1% antibiotic–antimycotic mixture (10000 μg ml^-1 potassium penicillin, 10000 μg ml^-1 streptomycin sulfate and 25 μg ml^-1 amphotericin B), 10% fetal bovine serum and 1% L-glutamine at 37 °C, under 5% CO2 and 95% humidity. Cells were seeded at concentration of 30000 cells per well in fresh complete growth medium in 96-well tissue culture microtiter plates for 24 h. Media was aspirated, fresh complete medium was added and cells were incubated with different concentrations of the tested compound to give a final concentration of [50, 25, 12.5 and 6.25 μM “in addition to 3.125, 1.56 and 0.78 μM in case of high potent analogues”). 0.5% DMSO was used as negative control. Triplicate wells were prepared for each individual dose. After 72 h of incubation, medium was aspirated, 40 μl MTT salt (2.5 mg ml^-1) was added to each well and incubated for further 4 h at 37 °C. To stop the reaction and dissolve the formed crystals, 150 μl of 10% sodium dodecyl sulfate (SDS) in deionized water was added to each well and incubated overnight at 37 °C. The absorbance was then measured at 570 nm and a reference wavelength of 595 nm.
as §3, §4, §8

VERO-E6 cells = settings: cited from earlier work
[9] = Vero-E6, 72 h, reduction of virus-induced CPE, read-out: IC50 (µM) SARS-CoV-2
[10] = log of observed IC50 in μM, read-out: Observed log(IC50, μM) (SARS-CoV-2) (converted)
[11] = A-431, 72 h, read-out: IC50 (µM) ± SEM A431
[12] = A-431, read-out: Observed log(IC50, μM) (A431) (converted)

SMILES	IC50 [1]	CC50 at 24 h [2]	IC50 [3]	SI (selectivity index) HCT116 [3]	IC50 [4, 9]	IC50 [4, 10]	SI = CC50/IC50 [4]	IC50 [5]	SI (selectivity index) MCF7 [5]	VEGFR-2 % Inhibition (VEGFR-2)	VEGFR-2 RQ (relative quantification) (VEGFR-2)	EGFR % Inhibition (EGFR)	EGFR RQ (relative quantification) (EGFR)	SI = IC50 (AChE)/IC50 (BChE) (AChE)	IC50 (AChE)	IC50 (BChE)	IC50 [6, 11]	IC50 [6, 12]	SI (selectivity index) A431 [6]	IC50 [7]	further results
CCN(CC)CCCC(C)Nc1ccnc2cc(Cl)ccc12 (stereo not drawn) [Chloroquine]	25 µM	–	–	–	–	–	–	–	–	–	–	–	–	–	–	–	–	–	–	–	–
CCS(=O)(=O)N1C/C(=C\c2ccc(Cl)cc2)C(=O)C2(C1)C(c1ccc(Cl)cc1)CN(C)C21C(=O)Nc2ccccc21 (stereo not drawn) [Compound 6k, (E)-5″-(4-Chlorobenzylidene)-4′-(4-chlorophenyl)-1″-(ethylsulfonyl)-1′-methyldispiro[indoline-3,2′-pyrrolidine-3′,3″-piperidine]-2,4″-dione]	–	55.5 µM	4.17 ± 0.38 µM	3.5	8.43 µM	8.43 µM	6.6	4.38 ± 0.26 µM	3.4	66.2%	1.105	66.2%	1.163	1.6	32.3 ± 4.78 µM	19.6 ± 2.1 µM	2.97 ± 0.29 µM	2.97 µM	5.0	14.8 ± 0.99 µM	IC50 [8]: 8.83 ± 0.7 µM; SI (selectivity index) PaCa-2 [8]: 1.7
COc1ccc(/C=C2\CN(S(C)(=O)=O)CC3(C2=O)C(c2ccc(OC)c(OC)c2)CN(C)C32C(=O)Nc3ccccc32)cc1OC (stereo not drawn) [Compound 6n, (E)-5″-(3,4-Dimethoxybenzylidene)-4′-(3,4-dimethoxyphenyl)-1′-methyl-1″-(methylsulfonyl)dispiro[indoline-3,2′-pyrrolidine-3′,3″-piperidine]-2,4″-dione]	–	621 µM	15.4 ± 0.52 µM	> 3.2	35.9 µM	35.9 µM	17.3	40.2 ± 1.1 µM	> 1.2	64.2%	1.167	69.6%	1.047	0.9	5.4 ± 0.94 µM	6.33 ± 0.85 µM	34.9 ± 1.36 µM	34.9 µM	> 1.4	> 50 µM	IC50 [8]: 32.8 ± 1.21 µM; SI (selectivity index) PaCa-2 [8]: > 1.5
COc1ccc(/C=C2\CN(S(C)(=O)=O)CC3(C2=O)C(c2ccc(OC)c(OC)c2)CN(C)C32C(=O)Nc3ccc(Cl)cc32)cc1OC (stereo not drawn) [Compound 6o, (E)-5-Chloro-5″-(3,4-dimethoxybenzylidene)-4′-(3,4-dimethoxyphenyl)-1′-methyl-1″-(methylsulfonyl)dispiro[indoline-3,2′-pyrrolidine-3′,3″-piperidine]-2,4″-dione]	–	196 µM	28.5 ± 0.75 µM	> 1.8	88.2 µM	88.2 µM	2.2	48.9 ± 1.84 µM	> 1.0	61.8%	1.2473	65.9%	1.175	1.1	27 ± 6.7 µM	24.9 ± 4.6 µM	45.4 ± 1.84 µM	45.4 µM	> 1.1	> 50 µM	IC50 [8]: > 50 µM
NC(=O)c1nc(F)c[nH]c1=O [Favipiravir]	1380 µM	–	–	–	–	–	–	–	–	–	–	–	–	–	–	–	–	–	–	–	CC50 (VERO-E6 cells): 5260 µM; SI = CC50/IC50 [1]: 3.8
CCN(CCO)CCCC(C)Nc1ccnc2cc(Cl)ccc12 (stereo not drawn) [Hydroxychloroquine]	36.9 µM	–	–	–	–	–	–	–	–	–	–	–	–	–	–	–	–	–	–	–	CC50 (VERO-E6 cells): 356 µM; SI = CC50/IC50 [1]: 9.7
